According to the OligoGym collection:
Several values for one entry are separate records, joined by “and”; a condition that tells them apart may be missing. Equal entries are not always repeated. After the bases stand the sugars from the 5' end (letter, count) and the backbone: PS all phosphorothioate, else s phosphorothioate and o phosphodiester by linkage. Methylation of C is not given here. e = 2'-O-(2-methoxyethyl) (MOE); k = constrained ethyl (cEt); d = 2'-deoxy (DNA)

Target: IRF4
Details: ASO

Sequence | target mRNA inhibition (SK-MEL-28, 4 µM) [%] | target mRNA inhibition (MM.1R, 1 µM) | also measured
CCTGAGACAAGTGCTA (sugars k3 d10 k3, PS) | 43 | – | –
CCTGAGAGTAAACTTG (sugars k3 d10 k3, PS) | 18 | – | –
CCTGAGTATTTCATAG (sugars k3 d10 k3, PS) | 42 | – | –
CCTGTCACCTGGCAAC (sugars k4 d8 k4, PS) | 37 | – | –
CCTGTGCAAAACCAGT (sugars k3 d10 k3, PS) | – | -10% | –
CCTTACCTCGCCCTGG (sugars k3 d10 k3, PS) | – | -31% | –
CCTTACCTGACAAGAA (sugars k3 d10 k3, PS) | – | -11% | –
CCTTAGGATAATATAC (sugars k3 d10 k3, PS) | 23 | – | –
CGAAAAGTCAAAATAC (sugars k3 d10 k3, PS) | 0 | – | –
CGACACGCGCCGCTCG (sugars k3 d10 k3, PS) | – | – | target mRNA inhibition (MM.1R, 0.0625 µM): -6%; target mRNA inhibition (MM.1R, 0.25 µM): -10%; target mRNA inhibition (MM.1R, 4 µM): -13%
CGAGCGGTGAAACTGA (sugars k3 d10 k3, PS) | 33 | – | –
CGCACGGACGAACGCG (sugars k3 d10 k3, PS) | – | -17% | –
CGCAGAGCCAGTAGGG (sugars k3 d10 k3, PS) | 67 | – | target mRNA inhibition (SK-MEL-28, 0.185 µM): 16% and 4% and 12%; target mRNA inhibition (SK-MEL-28, 5 µM): 56% and 59% and 77%; target mRNA inhibition (SK-MEL-28, 15 µM): 81% and 82% and 91%
CGCAGGAGCGCGGAGG (sugars k3 d10 k3, PS) | – | -28% | –
CGCCAGTGACCACGAG (sugars k3 d10 k3, PS) | 42 | – | –
CGCCCGACCCTCCCCA (sugars k3 d10 k3, PS) | – | -24% | –
CGCCGAAGTCAACAGG (sugars k3 d10 k3, PS) | 44 | – | –
CGCCGGCACAGGCGCG (sugars k3 d10 k3, PS) | – | 14% | –
CGCCTTAATGTTCAGC (sugars k3 d10 k3, PS) | 66 | – | –
CGCGCAAAGGGCAAGG (sugars k3 d10 k3, PS) | 34 | – | –
CGCGCAAGTCTACAGC (sugars k3 d10 k3, PS) | – | 13% | –
CGGAGCTTCCCGTTGC (sugars k3 d10 k3, PS) | 35 | – | –
CGGGAATTTCCATTGG (sugars k3 d10 k3, PS) | 50 | – | –
CGGGAGAGCGGAGGCG (sugars k3 d10 k3, PS) | 0 | – | –
CGGGAGATAAAGAACA (sugars k3 d10 k3, PS) | 31 | – | –
CGGGTCTGAGATGTCC (sugars k3 d10 k3, PS) | – | -2% | –

Sequence | target mRNA inhibition (SK-MEL-28, 4 µM) [%] | target mRNA inhibition (MM.1R, 1 µM) | also measured
CGGTAGAGTGAGATGC (sugars k3 d10 k3, PS) | 54 | – | –
CGTAACAACGACACAC (sugars k3 d10 k3, PS) | – | -35% | –
CGTAATACAAATAAAG (sugars k3 d10 k3, PS) | 3 | – | –
CGTAGTCCCTCCAGCT (sugars k3 d10 k3, PS) | – | 27% | –
CGTCAAGGAGGCCTGG (sugars k3 d10 k3, PS) | 43 | – | –
CGTCATGGGACATTGG (sugars k3 d10 k3, PS) | 56 | – | –
CGTGAAACAGCAGTTC (sugars k3 d10 k3, PS) | 40 | – | –
CGTGTGCTTGCCAAGC (sugars kkdddddddddkekek, PS) | – | 49% and 43% | –
CGTTCCTTTTCAGAGT (sugars k3 d10 k3, PS) | 30 | – | –
CGTTCTCCCACACCAG (sugars k4 d8 k4, PS) | -1 | – | –
CTAAAGAATGAGGGTC (sugars k3 d10 k3, PS) | 62 | – | –
CTACCTCAGTTTGTGA (sugars k3 d10 k3, PS) | 41 | – | –
CTACCTTTTTTGGCTC (sugars k3 d10 k3, PS) | 17 | – | –
CTACTCTTCAGGCACC (sugars k3 d10 k3, PS) | – | 18% | –
CTACTGGGTACATGGC (sugars k3 d10 k3, PS) | 84 | – | –
CTAGATTCTCCCTGCA (sugars k3 d10 k3, PS) | 34 | – | –
CTAGTCAGTGTCAATA (sugars k3 d10 k3, PS) | 51 | – | –
CTATAGTGTTCCAGGA (sugars k3 d9 k3 e1, PS) | – | 31% | –
CTATAGTGTTCCAGGA (sugars kkkddddddddkekek, PS) | – | 23% | –
CTATATAAAAAGTGGG (sugars k3 d10 k3, PS) | 16 | – | –
CTATTAAACAGCACTC (sugars k3 d10 k3, PS) | 18 | – | –
CTATTATAGAGCATCA (sugars k3 d10 k3, PS) | 55 | – | –
CTCACACACAGGATGT (sugars k3 d10 k3, PS) | 18 | – | –
CTCATCACCGAACACA (sugars k3 d10 k3, PS) | – | 8% | –
CTCCAGGGATGGAACA (sugars k3 d10 k3, PS) | 19 | – | –
CTCCATCAATCATGAT (sugars k3 d10 k3, PS) | 33 | – | –
